From patent publication US9943482B2, “Milk-derived microvesicle compositions and related methods” (UNIVERSITY OF LOUISVILLE RESEARCH FOUNDATION, INC., priority 2013, dated 2018)
Where two headings read alike, the source gives them in different places.

What was measured:
[1] = Loading of therapeutic agents into bovine milk-derived exosomes; type: physicochemical
Protocol: (§1) Several procedures were developed to load therapeutic agents onto the milk- or colostrum-derived exosomes. […] In one preferred embodiment, incubation of exosomes in PBS with test agents in the presence of 10% ethanol or 10% ethanol:acetonitrile (1:1) allowed for increased loading of therapeutic agents into the exosomes. The agents utilized in those studies included curcumin, withaferin A, demethoxycurcumin, delphinidin, cyanidin, a native mixture of (five) anthocyanidins from bilberry, punicalagin, and tanshinone II. The chemotherapeutic agents doxorubicin, paclitaxel, and docetaxel were also loaded in the exosomes. In this regard, it was observed that the exosomes accepted both hydrophobic (paclitaxel, docetaxel, curcumin, withaferin A, tanshinone II) and hydrophilic agents (berry anthocyanidins, punicalagin) with a loading efficiency of 4% to 65% with respect to exosomal proteins, as determined by measurement of the drug and exosomal protein contents (Tables IV and V). Sucrose density gradient ultracentrifugation confirmed the presence of drugs embedded in the exosomes (FIGS. 5-8). When tested for in vitro release using dialysis tubes against buffer containing the surfactant, Tween-80 [47] at 37° C., PAC and WFA were released time-dependently—20%, 43% and 70% PAC in 2, 6 and 19 h, and 12%, 40% and 58% WFA in 1, 4, and 24 h, respectively (FIGS. 10, 11A, and 11B).

[2] = In vitro release from loaded exosomes, dialysis tubes against buffer with Tween-80 at 37° C.; type: physicochemical
Protocol: as §1

[3] = 3 mg chemo. drug, 30 mg exosomal protein (Sample A)
[4] = 6 mg chemo. drug, 30 mg exosomal protein (Sample B)
[5] = 9 mg chemo. drug, 30 mg exosomal protein (Sample C)
[6] = 12 mg chemo. drug, 30 mg exosomal protein (Sample D)
[7] = 18 mg chemo. drug, 30 mg exosomal protein (Sample E)

% Drug load [1, 3] [%]	% Drug load [1, 4] [%]	% Drug load [1, 5] [%]	% Drug load [1, 6] [%]	% Drug load [1, 7] [%]	stability of agent extracted from residual material of the release study [2]	in vitro release from exosomes ([2]; 2 h) [%]	in vitro release from exosomes ([2]; 6 h) [%]	in vitro release from exosomes ([2]; 19 h) [%]	SMILES	% Drug load ([1]; 5 mg agent, 50 mg exosomal protein (Sample A)) [%]	% Drug load ([1]; 10 mg agent, 50 mg exosomal protein (Sample B)) [%]	% Drug load ([1]; 20 mg agent, 50 mg exosomal protein (Sample C)) [%]	% Drug load ([1]; 25 mg agent, 50 mg exosomal protein (Sample D)) [%]	in vitro release from exosomes ([2]; 1 h) [%]	in vitro release from exosomes ([2]; 4 h) [%]	in vitro release from exosomes ([2]; 24 h) [%]	stability of agent extracted from residual material of the release study ([2]; HPLC or UV spectral analysis)
6.0	17.7	34.5	49.1	55.1	stable during the workup	–	–	–	CC(=O)O[C@@]12CO[C@@H]1C[C@H](O)[C@@]1(C)C(=O)[C@H](O)C3=C(C)[C@@H](OC(=O)[C@H](O)[C@@H](NC(=O)OC(C)(C)C)c4ccccc4)C[C@@](O)([C@@H](OC(=O)c4ccccc4)[C@H]21)C3(C)C [Docetaxel, docetaxel]	–	–	–	–	–	–	–	–
15.7	20.3	14.9	36.6	64.6	stable during the workup	20	43	70	CC(=O)O[C@H]1C(=O)[C@@]2(C)[C@H]([C@H](OC(=O)c3ccccc3)[C@]3(O)C[C@H](OC(=O)[C@H](O)[C@@H](NC(=O)c4ccccc4)c4ccccc4)C(C)=C1C3(C)C)[C@]1(OC(C)=O)CO[C@@H]1C[C@@H]2O [Paclitaxel, paclitaxel]	–	–	–	–	–	–	–	–
–	–	–	–	–	–	–	–	–	CC1=C(CO)C(=O)O[C@@H]([C@@H](C)[C@H]2CC[C@H]3[C@@H]4C[C@H]5O[C@]56[C@@H](O)C=CC(=O)[C@]6(C)[C@H]4CC[C@]23C)C1 [Withaferin A, withaferin A]	3.8	8.6	31.4	44.8	12	40	58	stable during the workup
